# Assay results taken from US12473283B2, “Compounds and their use” (Debiopharm International S.A., priority 2019, dated 2025).
# Like-named read-outs stand apart in the source and are kept apart here.
# What was measured:
# [1] = target: FabI enzyme from Acinetobacter baumannii (Acinetobacter baumannii, UniProt D0CAD5); assay: Inhibition of FabI enzyme, rate of NADH consumption; type: biochemical
# Procedure: (§1) Inhibition of FabI enzyme from Acinetobacter baumannii and Escherichia coli was tested by measuring the rate of NADH consumption (Δabsorbance at 340 nm/min) at 30° C. in 96-well plate format using an automated plate reader in the presence or absence of the test compounds. The assay mixture contained 100 mM Tris-HCl, pH 7.25 (A. baumannii) or 7.5 (E. coli), 100 mM ammonium acetate, 0.02% (A. baumannii) or 0.05% (E. coli) Pluronic F-68, 25 μM crotonyl ACP, 50 μM NADH, 25 pM (A. baumannii) or 50 pM (E. coli) recombinant FabI protein, and 7.5% DMSO. Test compounds were added at concentrations ranging from 0.17 to 10,000 nM in a final well volume of 100 μl. This dose-response inhibitory assay was performed using a 10-point, serial dilution series for each test compound. IC50 values for each test compound were assigned from logistical sigmoid curve-fitting of the inhibition dose response curves.
# [2] = target: FabI enzyme from Escherichia coli (Escherichia coli, UniProt P0AEK4); assay: as above; type: biochemical
# Chain of FabI enzyme from Escherichia coli (P0AEK4 whole entry): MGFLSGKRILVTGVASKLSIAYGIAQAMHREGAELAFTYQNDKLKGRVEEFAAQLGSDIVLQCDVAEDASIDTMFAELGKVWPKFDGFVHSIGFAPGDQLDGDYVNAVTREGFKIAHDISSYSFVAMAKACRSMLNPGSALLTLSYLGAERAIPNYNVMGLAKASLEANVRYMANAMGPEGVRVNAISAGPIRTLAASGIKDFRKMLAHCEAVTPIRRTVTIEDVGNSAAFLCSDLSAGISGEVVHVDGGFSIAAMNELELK
# Procedure: as §1
# [3] = test system: A. baumannii ATCC BAA1605; assay: Broth microdilution MIC assay; type: cell-based; details: Acinetobacter baumannii, ATCCBAA1605; CA-MHB, 35° C., 20 hours
# Procedure: (§2) The antibacterial activity of FabI inhibitors against select Gram-negative and Gram-positive bacterial species including susceptible and multi-drug resistant A. baumannii, E. coli, K. pneumoniae and S. aureus was tested using the broth microdilution Minimal Inhibitory Concentration (MIC) assay following CLSI guidelines for insoluble compounds. Test articles were serially diluted 2-fold in 100% dimethyl sulfoxide (DMSO) and then diluted 100-fold into cation adjusted Mueller-Hinton broth (CA-MHB) to achieve a 10-point test concentration range in 1% DMSO. Final compound concentrations were 0.016-8 μg/ml for S. aureus or 0.06-32 μg/ml for the Gram-negative species. MIC test plates were then prepared by transferring 100 μl of the final assay medium (test article in CA-MHB, 1% DMSO) into the appropriate wells of a sterile, low binding 96-well polystyrene plate. Direct colony suspension inoculums of the test strains were freshly prepared per CLSI guidelines, and the appropriate test wells were inoculated to achieve a final bacterial cell density of 5×10^5 CFU/ml. Growth control (no test article) and negative control (no bacterial inoculum) wells were also included. Exposure to light was minimized during all stages of assay preparation. […] Bacterial growth was then determined by measuring the optical density at 600 nm (OD600) using a SpectraMax Plus plate-reader spectrophotometer.
# S. aureus ATCC 29213 = assay: Broth microdilution MIC assay; type: cell-based; details: Staphylococcus aureus, ATCC29213; CA-MHB, 35° C., 20 hours
# Procedure: as §2
# E. coli AG100 = assay: Broth microdilution MIC assay; type: cell-based; details: Escherichia coli, CA-MHB, 35° C., 20 hours
# Procedure: as §2
# K. pneumoniae A6030827 = assay: Broth microdilution MIC assay; type: cell-based; details: Klebsiella pneumoniae, CA-MHB, 35° C., 20 hours
# Procedure: as §2
# [4] = recombinant FabI, 30° C., pH 7.25, read-out: A. baumannii Fabl IC50
# [5] = recombinant FabI, 30° C., pH 7.5, read-out: E. coli Fabl IC50
# Chain of FabI enzyme from Acinetobacter baumannii (D0CAD5 entry or part of it): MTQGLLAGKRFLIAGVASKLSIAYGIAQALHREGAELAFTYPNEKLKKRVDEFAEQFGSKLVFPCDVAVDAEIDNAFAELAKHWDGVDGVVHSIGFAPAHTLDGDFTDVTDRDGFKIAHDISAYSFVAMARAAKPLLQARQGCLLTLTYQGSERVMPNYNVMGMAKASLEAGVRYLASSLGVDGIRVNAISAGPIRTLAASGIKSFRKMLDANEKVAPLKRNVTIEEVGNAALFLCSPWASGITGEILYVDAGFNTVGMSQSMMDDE
SMILES,"IC50 [1, 4]","IC50 [2, 5]",MIC [3],MIC (S. aureus ATCC 29213),IC50 [1],IC50 [2],MIC (E. coli AG100),MIC (K. pneumoniae A6030827)
"Cc1oc2ccccc2c1CN(C)C(=O)/C=C/c1cnc2c(c1)NC[C@H](N1CC3(COC3)C1)C(=O)N2 (single isomer, unassigned) [Compound 35]",< 0.01 µM,< 0.01 µM,≤ 4 µg/mL,≤ 4 µg/mL,–,–,–,–
"Cc1c(CN(C)C(=O)/C=C/c2cnc3c(c2)CC[C@H](N)C(=O)N3)oc2ccccc12.Cl (single isomer, unassigned) [Compound 71, hydrochloride]",–,–,–,–,< 0.01 µM,< 0.01 µM,–,–
"Cc1c(CN(C)C(=O)/C=C/c2cnc3c(c2)CCC(N2CCCC2)C(=O)N3)oc2ccccc12 (stereo not shown) [Compound 182, (E)-N-methyl-N-((3-methylbenzofuran-2-yl)methyl)-3-(8-oxo-7-(pyrrolidin-1-yl)-6,7,8,9-tetrahydro-5H-pyrido[2,3-b]azepin-3-yl)acrylamide]",< 0.01 µM,< 0.01 µM,≤ 4 µg/mL,≤ 4 µg/mL,–,–,≤ 4 µg/mL,≤ 4 µg/mL
"Cc1c(CN(C)C(=O)/C=C/c2cnc3c(c2)NC[C@H](N)C(=O)N3)oc2ccccc12 [Compound 8, (S,E)-3-(3-amino-4-oxo-2,3,4,5-tetrahydro-1H-pyrido[2,3-b][1,4]diazepin-8-yl)-N-methyl-N-((3-methylbenzofuran-2-yl)methyl)acrylamide]",< 0.01 µM,< 0.01 µM,≤ 4 µg/mL,≤ 4 µg/mL,–,–,≤ 4 µg/mL,≤ 4 µg/mL
"Cc1oc2c(N)cccc2c1CN(C)C(=O)/C=C/c1cnc2c(c1)CC[C@H](N)C(=O)N2 (single isomer, unassigned) [Compound 193]",–,< 0.01 µM,≤ 4 µg/mL,≤ 4 µg/mL,–,–,≤ 4 µg/mL,–
"Cc1c(CN(C)C(=O)/C=C/c2cnc3c(c2)CC[C@H](N)C(=O)N3)sc2ccccc12.Cl (single isomer, unassigned) [Compound 119, hydrochloride]",–,–,–,–,< 0.01 µM,< 0.01 µM,–,–
"Cc1c(CN(C)C(=O)/C=C/c2cnc3c(c2)NC[C@@H](N2C[C@@H](C)O[C@@H](C)C2)C(=O)N3)oc2ccccc12 (single isomer, unassigned) [Compound 21]",–,< 0.01 µM,≤ 4 µg/mL,≤ 4 µg/mL,–,–,–,16 µg/mL
"Cc1c(CN(C)C(=O)C=Cc2cnc3c(c2)CCC(N)C(=O)N3)oc2cccc(OC3CCC(N)CC3)c12 (single isomer, unassigned) [Compound 86]",< 0.01 µM,–,≤ 4 µg/mL,≤ 4 µg/mL,–,–,≤ 4 µg/mL,≤ 4 µg/mL
"Cc1c(CN(C)C(=O)/C=C/c2cnc3c(c2)CC[C@H](N2CC4(COC4)C2)C(=O)N3)oc2ccccc12 (single isomer, unassigned) [Compound 190]",< 0.01 µM,< 0.01 µM,≤ 4 µg/mL,≤ 4 µg/mL,–,–,≤ 4 µg/mL,≤ 4 µg/mL
"Cc1oc2ccccc2c1CN(C)C(=O)/C=C/c1cnc2c(c1)CCC(N1CCOCC1)C(=O)N2 (stereo not shown) [Compound 173, (E)-N-methyl-N-((2-methylbenzofuran-3-yl)methyl)-3-(7-morpholino-8-oxo-6,7,8,9-tetrahydro-5H-pyrido[2,3-b]azepin-3-yl)acrylamide]",< 0.01 µM,< 0.01 µM,≤ 4 µg/mL,≤ 4 µg/mL,–,–,–,–
"Cc1c(CN(C)C(=O)/C=C/c2cnc3c(c2)CC[C@H](N2CCOCC2)C(=O)N3)oc2c(F)cccc12 (single isomer, unassigned) [Compound 113]",< 0.01 µM,–,≤ 4 µg/mL,≤ 4 µg/mL,–,–,8 µg/mL,≤ 4 µg/mL
"Cc1oc2c(N)cccc2c1CN(C)C(=O)/C=C/c1cnc2c(c1)CCC(N1CCCC1)C(=O)N2 (stereo not shown) [Compound 191, (E)-N-((7-amino-2-methylbenzofuran-3-yl)methyl)-N-methyl-3-(8-oxo-7-(pyrrolidin-1-yl)-6,7,8,9-tetrahydro-5H-pyrido[2,3-b]azepin-3-yl)acrylamide]",–,< 0.01 µM,≤ 4 µg/mL,≤ 4 µg/mL,–,–,8 µg/mL,–
